Test results: PubChem BioAssay AID2060620 (Molecular Pharmacology Branch, DTP, NCI, 2025)

Tested on: 328373-195-R-J1-PDC complex spheroids, viability % test/control
Assay: Anticancer human tumor 328373-195-R-J1-PDC patient-derived head and neck squamous carcinoma cell line growth inhibition [CLK]
Details: for IC50: curve of first compound; for viability, T/C: stronger effect = lower value
Procedure, shortened: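 Patient-derived tumor cells grown as complex spheroids with HUVEC endothelial cells and mesenchymal stem cells, treated with drug combinations. Concentrations descend in half-log steps from near clinical Cmax, or from 10 microM if Cmax unknown.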

[1] = second compound 0.0316 µM, first compound 0.0316 µM
[2] = second compound 0.0316 µM, first compound 0.1 µM
[3] = second compound 0.0316 µM, first compound 0.316 µM
[4] = second compound 0.0316 µM, first compound 1 µM
[5] = second compound 0.0316 µM, first compound 3.16 µM
[6] = second compound 0.0316 µM, first compound 10 µM
[7] = second compound 0.1 µM, first compound 0.0316 µM
[8] = second compound 0.1 µM, first compound 0.1 µM
[9] = second compound 0.1 µM, first compound 0.316 µM
[10] = second compound 0.1 µM, first compound 1 µM
[11] = second compound 0.1 µM, first compound 3.16 µM
[12] = second compound 0.1 µM, first compound 10 µM
[13] = second compound 0.316 µM, first compound 0.0316 µM
[14] = second compound 0.316 µM, first compound 0.1 µM
[15] = second compound 0.316 µM, first compound 0.316 µM
[16] = second compound 0.316 µM, first compound 1 µM
[17] = second compound 0.316 µM, first compound 3.16 µM
[18] = second compound 0.316 µM, first compound 10 µM
[19] = second compound 1 µM, first compound 0.0316 µM
[20] = second compound 1 µM, first compound 0.1 µM
[21] = second compound 1 µM, first compound 0.316 µM
[22] = second compound 1 µM, first compound 1 µM
[23] = second compound 1 µM, first compound 3.16 µM
[24] = second compound 1 µM, first compound 10 µM
[25] = second compound 3.16 µM, first compound 0.0316 µM
[26] = second compound 3.16 µM, first compound 0.1 µM
[27] = second compound 3.16 µM, first compound 0.316 µM
[28] = second compound 3.16 µM, first compound 1 µM
[29] = second compound 3.16 µM, first compound 3.16 µM
[30] = second compound 3.16 µM, first compound 10 µM
[31] = second compound 10 µM, first compound 0.0316 µM
[32] = second compound 10 µM, first compound 0.1 µM
[33] = second compound 10 µM, first compound 0.316 µM
[34] = second compound 10 µM, first compound 1 µM
[35] = second compound 10 µM, first compound 3.16 µM
[36] = second compound 10 µM, first compound 10 µM
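Further: spheroids exposed to the agents for 7 days.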

CC(=O)O[C@H]1C(=O)[C@@]2(C)[C@H]([C@H](OC(=O)c3ccccc3)[C@]3(O)C[C@H](OC(=O)[C@H](O)[C@@H](NC(=O)c4ccccc4)c4ccccc4)C(C)=C1C3(C)C)[C@]1(OC(C)=O)CO[C@@H]1C[C@@H]2O + CNC(=O)c1ccc(Nc2nc(OC3CCCC3)c3c(-c4ccc5nc(C)oc5c4)c[nH]c3n2)c(OC)c1
IC50 (second compound 0.0316 µM): < 31.6 nM | IC50 (second compound 0.1 µM): < 31.6 nM | IC50 (second compound 0.316 µM): < 31.6 nM | IC50 (second compound 1 µM): < 31.6 nM | IC50 (second compound 3.16 µM): < 31.6 nM | IC50 (second compound 10 µM): < 31.6 nM | viability, T/C [1]: 11.7% | viability, T/C [2]: 7.56% | viability, T/C [3]: 14% | viability, T/C [4]: 13.7% | viability, T/C [5]: 12.7% | viability, T/C [6]: 22% | viability, T/C [7]: 20.2% | viability, T/C [8]: 22.9% | viability, T/C [9]: 18.8% | viability, T/C [10]: 26.1% | viability, T/C [11]: 25.2% | viability, T/C [12]: 29.1% | viability, T/C [13]: 21.1% | viability, T/C [14]: 23.5% | viability, T/C [15]: 24.7% | viability, T/C [16]: 29.3% | viability, T/C [17]: 32.1% | viability, T/C [18]: 29.8% | viability, T/C [19]: 21% | viability, T/C [20]: 24% | viability, T/C [21]: 27% | viability, T/C [22]: 30.8% | viability, T/C [23]: 36.7% | viability, T/C [24]: 28% | viability, T/C [25]: 22.2% | viability, T/C [26]: 27.2% | viability, T/C [27]: 29.8% | viability, T/C [28]: 32.7% | viability, T/C [29]: 37.1% | viability, T/C [30]: 33.9% | viability, T/C [31]: 20% | viability, T/C [32]: 28.6% | viability, T/C [33]: 30.5% | viability, T/C [34]: 36.7% | viability, T/C [35]: 42.3% | viability, T/C [36]: 36%

CCc1c2c(nc3ccc(O)cc13)-c1cc3c(c(=O)n1C2)COC(=O)[C@]3(O)CC + CNC(=O)c1ccc(Nc2nc(OC3CCCC3)c3c(-c4ccc5nc(C)oc5c4)c[nH]c3n2)c(OC)c1
IC50 (second compound 0.0316 µM): < 3.16 nM | IC50 (second compound 0.1 µM): < 3.16 nM | IC50 (second compound 0.316 µM): < 3.16 nM | IC50 (second compound 1 µM): < 3.16 nM | IC50 (second compound 3.16 µM): < 3.16 nM | IC50 (second compound 10 µM): < 3.16 nM | viability, T/C (second compound 0.0316 µM, first compound 0.00316 µM): 7.71% | viability, T/C (second compound 0.0316 µM, first compound 0.01 µM): 1.63% | viability, T/C [1]: 2.84% | viability, T/C [2]: 0.67% | viability, T/C [3]: 0.38% | viability, T/C [4]: 0.09% | viability, T/C (second compound 0.1 µM, first compound 0.00316 µM): 7.73% | viability, T/C (second compound 0.1 µM, first compound 0.01 µM): 1.04% | viability, T/C [7]: 2.54% | viability, T/C [8]: 0.41% | viability, T/C [9]: 1.87% | viability, T/C [10]: 2.57% | viability, T/C (second compound 0.316 µM, first compound 0.00316 µM): 7.15% | viability, T/C (second compound 0.316 µM, first compound 0.01 µM): 3.14% | viability, T/C [13]: 1.9% | viability, T/C [14]: 0.39% | viability, T/C [15]: 1.85% | viability, T/C [16]: 0.68% | viability, T/C (second compound 1 µM, first compound 0.00316 µM): 5.68% | viability, T/C (second compound 1 µM, first compound 0.01 µM): 1.49% | viability, T/C [19]: 1.06% | viability, T/C [20]: 0.86% | viability, T/C [21]: 0.2% | viability, T/C [22]: 1.91% | viability, T/C (second compound 3.16 µM, first compound 0.00316 µM): 9.03% | viability, T/C (second compound 3.16 µM, first compound 0.01 µM): 2.69% | viability, T/C [25]: 1.66% | viability, T/C [26]: 0.35% | viability, T/C [27]: 1.13% | viability, T/C [28]: 1.82% | viability, T/C (second compound 10 µM, first compound 0.00316 µM): 10.2% | viability, T/C (second compound 10 µM, first compound 0.01 µM): 1.94% | viability, T/C [31]: 1.92% | viability, T/C [32]: 0.95% | viability, T/C [33]: 2.93% | viability, T/C [34]: 1.05%

O=c1[nH]cc(F)c(=O)[nH]1 + CNC(=O)c1ccc(Nc2nc(OC3CCCC3)c3c(-c4ccc5nc(C)oc5c4)c[nH]c3n2)c(OC)c1
IC50 (second compound 0.0316 µM): < 31.6 nM | IC50 (second compound 0.1 µM): < 31.6 nM | IC50 (second compound 0.316 µM): < 31.6 nM | IC50 (second compound 1 µM): < 31.6 nM | IC50 (second compound 3.16 µM): < 31.6 nM | IC50 (second compound 10 µM): < 31.6 nM | viability, T/C [1]: 37% | viability, T/C [2]: 18.3% | viability, T/C [3]: 8.48% | viability, T/C [4]: 5.66% | viability, T/C [5]: 6.31% | viability, T/C [6]: 11.2% | viability, T/C [7]: 8.64% | viability, T/C [8]: 5.34% | viability, T/C [9]: 5% | viability, T/C [10]: 3.23% | viability, T/C [11]: 2.62% | viability, T/C [12]: 7.23% | viability, T/C [13]: 7.44% | viability, T/C [14]: 6.09% | viability, T/C [15]: 4.45% | viability, T/C [16]: 4.15% | viability, T/C [17]: 4.13% | viability, T/C [18]: 6.8% | viability, T/C [19]: 8.18% | viability, T/C [20]: 7.54% | viability, T/C [21]: 3.88% | viability, T/C [22]: 2.98% | viability, T/C [23]: 2.83% | viability, T/C [24]: 4.21% | viability, T/C [25]: 11% | viability, T/C [26]: 7.15% | viability, T/C [27]: 3.65% | viability, T/C [28]: 2.93% | viability, T/C [29]: 3.84% | viability, T/C [30]: 4.43% | viability, T/C [31]: 12.2% | viability, T/C [32]: 8.27% | viability, T/C [33]: 4.41% | viability, T/C [34]: 3.11% | viability, T/C [35]: 3.46% | viability, T/C [36]: 1.56%
